Data: US20140249135A1, “PIM KINASE INHIBITORS AND METHODS OF THEIR USE” (NOVARTIS AG, priority 2007, published 2014)
Read-outs that look alike come from different tables or passages of the source.

Assays:
[1] = biological target: T1, human full length PKCE enzyme (Homo sapiens, UniProt Q02156); experiment: In vitro PKCE assay; assay type: biochemical; conditions: 10 nM enzyme, 40 uM peptide substrate, 20 uM ATP, KinaseGlo Plus readout; read-out: PKCε IC50
T1 construct: human full length PKCE enzyme purchased from InVitrogen; purchased InVitrogen
T1 sequence (Q02156 1-737): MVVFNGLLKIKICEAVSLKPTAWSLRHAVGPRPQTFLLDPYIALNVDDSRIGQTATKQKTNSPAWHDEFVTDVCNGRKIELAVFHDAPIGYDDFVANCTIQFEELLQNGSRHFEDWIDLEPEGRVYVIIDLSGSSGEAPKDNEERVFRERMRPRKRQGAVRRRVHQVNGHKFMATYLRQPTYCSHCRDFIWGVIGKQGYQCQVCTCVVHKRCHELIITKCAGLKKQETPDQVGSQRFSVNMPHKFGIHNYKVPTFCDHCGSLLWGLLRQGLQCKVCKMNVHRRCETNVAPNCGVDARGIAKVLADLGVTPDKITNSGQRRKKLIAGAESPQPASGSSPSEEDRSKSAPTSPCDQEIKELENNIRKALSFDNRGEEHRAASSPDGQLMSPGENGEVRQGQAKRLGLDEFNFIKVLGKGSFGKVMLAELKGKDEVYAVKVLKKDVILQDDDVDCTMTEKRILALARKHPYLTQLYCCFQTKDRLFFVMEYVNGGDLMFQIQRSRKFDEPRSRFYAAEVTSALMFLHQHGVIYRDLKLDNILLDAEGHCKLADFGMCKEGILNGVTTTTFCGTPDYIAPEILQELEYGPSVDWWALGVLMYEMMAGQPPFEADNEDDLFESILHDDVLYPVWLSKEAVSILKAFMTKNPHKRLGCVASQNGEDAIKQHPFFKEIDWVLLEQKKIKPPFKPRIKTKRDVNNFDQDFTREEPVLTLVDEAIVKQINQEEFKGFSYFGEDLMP

[2] = system: HEL 92.1.7 cells; experiment: Cell proliferation assay (CellTiter-Glo), HEL 92.1.7; assay type: cell-based; conditions: Homo sapiens
How it was run: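 CellTiter-Glo luminescence was read after 3-day compound exposure at 37 °C of cells plated at 1000/well in RPMI1640 with 10% FBS. Signal was normalised between DMSO-treated and control-compound-treated wells. EC50 is the concentration giving 50% of maximal effect.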

[3] = biological target: Pim2 kinase (Homo sapiens, UniProt Q9P1W9); experiment: Pim2 ATP depletion assay; assay type: biochemical;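 further: Luciferase-based luminescent readout of ATP remaining after PIM2 phosphorylates a BAD peptide, final 5 nM enzyme, 4 µM ATP, 10 µM peptide, 2.5% DMSO, run to roughly half ATP consumption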
Sequence of Pim2 kinase (Q9P1W9 whole entry): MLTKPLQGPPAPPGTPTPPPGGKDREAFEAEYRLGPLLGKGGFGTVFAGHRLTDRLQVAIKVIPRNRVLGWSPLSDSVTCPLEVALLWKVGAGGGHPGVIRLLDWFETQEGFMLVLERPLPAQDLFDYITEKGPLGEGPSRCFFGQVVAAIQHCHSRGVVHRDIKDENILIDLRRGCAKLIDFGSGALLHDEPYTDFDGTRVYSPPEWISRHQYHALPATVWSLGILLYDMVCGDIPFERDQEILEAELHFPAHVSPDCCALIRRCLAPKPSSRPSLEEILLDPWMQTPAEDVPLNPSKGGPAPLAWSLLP

[4] = biological target: KDR kinase (Homo sapiens, UniProt P35968); experiment: KDR AlphaScreen assay; conditions: KDR IC50 (μM)
Sequence of KDR kinase (P35968 20-1356): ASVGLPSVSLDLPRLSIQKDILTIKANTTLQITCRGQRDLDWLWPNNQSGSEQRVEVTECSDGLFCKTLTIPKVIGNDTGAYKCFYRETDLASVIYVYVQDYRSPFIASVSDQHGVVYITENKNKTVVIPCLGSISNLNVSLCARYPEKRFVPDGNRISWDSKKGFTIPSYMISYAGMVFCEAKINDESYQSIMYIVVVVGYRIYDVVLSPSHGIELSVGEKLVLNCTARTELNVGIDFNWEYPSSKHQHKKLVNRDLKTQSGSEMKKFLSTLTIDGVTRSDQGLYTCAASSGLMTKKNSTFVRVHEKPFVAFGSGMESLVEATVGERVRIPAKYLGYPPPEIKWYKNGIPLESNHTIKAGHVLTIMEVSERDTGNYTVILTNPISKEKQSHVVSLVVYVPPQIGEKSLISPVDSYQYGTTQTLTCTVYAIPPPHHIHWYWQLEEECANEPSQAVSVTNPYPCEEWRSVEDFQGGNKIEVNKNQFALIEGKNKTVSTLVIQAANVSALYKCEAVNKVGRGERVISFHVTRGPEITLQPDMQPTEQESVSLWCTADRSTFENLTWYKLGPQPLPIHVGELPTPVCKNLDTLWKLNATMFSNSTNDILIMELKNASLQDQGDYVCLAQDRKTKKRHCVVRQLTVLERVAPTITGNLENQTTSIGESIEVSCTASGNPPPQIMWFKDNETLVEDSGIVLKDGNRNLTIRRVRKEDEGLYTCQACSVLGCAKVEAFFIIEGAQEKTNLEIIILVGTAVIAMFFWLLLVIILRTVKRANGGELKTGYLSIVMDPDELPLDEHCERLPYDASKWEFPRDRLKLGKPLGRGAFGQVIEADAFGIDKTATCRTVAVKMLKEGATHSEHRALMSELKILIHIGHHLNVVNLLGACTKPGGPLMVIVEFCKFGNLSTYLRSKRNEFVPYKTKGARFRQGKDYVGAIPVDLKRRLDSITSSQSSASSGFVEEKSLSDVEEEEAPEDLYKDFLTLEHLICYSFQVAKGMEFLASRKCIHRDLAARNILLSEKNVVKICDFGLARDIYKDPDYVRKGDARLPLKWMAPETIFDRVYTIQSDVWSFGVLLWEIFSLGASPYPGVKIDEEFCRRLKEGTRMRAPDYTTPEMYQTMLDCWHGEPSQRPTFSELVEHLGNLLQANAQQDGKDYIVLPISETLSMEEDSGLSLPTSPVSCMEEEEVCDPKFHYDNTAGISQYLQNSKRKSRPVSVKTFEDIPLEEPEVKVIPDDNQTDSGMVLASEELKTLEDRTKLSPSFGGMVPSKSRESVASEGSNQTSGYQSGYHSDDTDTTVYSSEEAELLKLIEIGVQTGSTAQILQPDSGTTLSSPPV

[5] = biological target: Pim1 kinase (Homo sapiens, UniProt P11309); experiment: Pim1 ATP depletion assay; assay type: biochemical;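 further: Luciferase-luciferin luminescence readout of residual ATP after PIM1 transfers phosphate to a peptide substrate, 40 µM ATP added, reaction run to roughly half ATP consumption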
Sequence of Pim1 kinase (P11309 whole entry): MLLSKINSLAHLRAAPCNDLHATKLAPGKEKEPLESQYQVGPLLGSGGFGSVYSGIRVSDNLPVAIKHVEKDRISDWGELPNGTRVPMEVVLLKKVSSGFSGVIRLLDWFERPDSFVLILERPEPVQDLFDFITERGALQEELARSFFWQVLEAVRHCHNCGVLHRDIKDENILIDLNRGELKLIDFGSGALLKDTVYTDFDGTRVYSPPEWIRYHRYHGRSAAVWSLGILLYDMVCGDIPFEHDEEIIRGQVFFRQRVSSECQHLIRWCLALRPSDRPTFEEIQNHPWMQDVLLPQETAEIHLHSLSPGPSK

[6] = biological target: Pim3 kinase (Homo sapiens, UniProt Q86V86); experiment: Pim3 ATP depletion assay; assay type: biochemical
[7] = Pim1 ATP depletion assay, read-out: IC50 (μM) PIM1

Structure (SMILES)	IC50 [1]	EC50 ([2]; read-out: HEL 92.1.7 EC50)	IC50 ([3]; read-out: PIM2 IC50)	IC50 [4]	IC50 ([5]; Pim1 ATP depletion assay, read-out: PIM1 IC50)	IC50 ([6]; read-out: PIM3 IC50)	EC50 ([2]; read-out: EC50 (μM) HEL 92.1.7)	IC50 ([3]; read-out: IC50 (μM) PIM2)	IC50 [5, 7]	IC50 ([6]; read-out: IC50 (μM) PIM3)	IC50 [5]
Nc1ncc(-c2ccccc2)nc1C(=O)Nc1[nH]c(=O)ncc1N1CCCCC1 [Example 590, 3-amino-6-phenyl-pyrazine-2-carboxylic acid (2-oxo-5-piperidin-1-yl-2,3-dihydro-pyrimidin-4-yl)-amide]	1 to 10 µM	1 to 5 µM	< 1 µM	< 1 µM	< 1 µM	< 1 µM	–	–	–	–	–
Nc1nccnc1C(=O)Nc1[nH]c(=O)ncc1N1CCCCC1 [Example 130, 3-amino-N-(2-oxo-5-piperidin-1-yl-2,3-dihydropyrimidin-4-yl)-pyrazine-2-carboxamide]	< 1 µM	–	–	1 to 10 µM	–	–	5 to 10 µM	< 1 µM	< 1 µM	< 1 µM	–
Nc1ccc(-c2ccc(N)c(C(=O)Nc3cnccc3N3CCC[C@H](N)C3)n2)cn1 [Example 418, 5,6′-diamino-[2,3′]bipyridinyl-6-carboxylic acid ((S)-3-amino-3,4,5,6-tetrahydro-2H-[1,4′]bi-pyridinyl-3′-yl)-amide]	10 to 25 µM	–	–	> 25 µM	–	–	1 to 5 µM	< 1 µM	< 1 µM	< 1 µM	–
Cc1ccc(F)c(-c2ccc(N)c(C(=O)Nc3cnccc3N3CCC[C@H](N)C3)n2)c1 [Example 333, 3-amino-6-(2-fluoro-5-methyl-phenyl)-pyridine-2-carboxylic acid ((S)-3-amino-3,4,5,6-tetrahydro-2H-[1,4′]bi-pyridinyl-3′-yl)-amide]	10 to 25 µM	–	–	> 25 µM	–	–	1 to 5 µM	< 1 µM	< 1 µM	< 1 µM	–
NCC1CCCN(c2ccncc2NC(=O)c2nc(Cl)c(N)nc2N)C1 (stereo not drawn) [Example 182, 3,5-diamino-N-{4-[3-(amino-methyl)piperidin-1-yl]pyridin-3-yl}-6-chloropyrazine-2-carboxamide]	1 to 10 µM	–	–	1 to 10 µM	–	–	< 1 µM	< 1 µM	< 1 µM	< 1 µM	–
Nc1nc(N)c(C(=O)Nc2[nH]c(=O)ncc2N2CCCCC2)nc1Cl [Example 131, 3,5-diamino-6-chloro-N-(2-oxo-5-piperidin-1-yl-2,3-dihydro-pyrimidin-4-yl)pyrazine-2-carboxamide]	> 25 µM	–	–	< 1 µM	–	–	< 1 µM	< 1 µM	< 1 µM	< 1 µM	–
Nc1cccnc1C(=O)Nc1cnccc1N1CCC[C@H](N)C1 [Example 175, 3-amino-N-{4-[(3S)-3-amino-piperidin-1-yl]pyridin-3-yl}-pyridine-2-carboxamide]	1 to 10 µM	–	–	> 25 µM	–	–	> 10 µM	< 1 µM	–	< 1 µM	< 1 µM
Nc1nccnc1C(=O)Nc1cnccc1N1CCCCC1 [Example 123, 3-amino-N-(4-piperidin-1-yl-pyridin-3-yl)pyrazine-2-carbox-amide]	< 1 µM	–	–	1 to 10 µM	–	–	< 1 µM	1 to 10 µM	–	< 1 µM	< 1 µM
Nc1ccc(-c2ccc(F)cc2F)nc1C(=O)Nc1cnccc1N1CCC[C@H](N)C1 [Example 431, 3-amino-6-(2,4-difluoro-phenyl)-pyridine-2-carboxylic acid ((S)-3-amino-3,4,5,6-tetrahydro-2H-[1,4′]bipyridinyl-3′-yl)-amide]	1 to 10 µM	–	–	> 25 µM	–	–	1 to 5 µM	< 1 µM	< 1 µM	< 1 µM	–
CS(=O)(=O)c1cccc(-c2ccc(N)c(C(=O)Nc3cnccc3N3CCC[C@H](N)C3)n2)c1 [Example 320]	10 to 25 µM	–	–	> 25 µM	–	–	> 10 µM	< 1 µM	< 1 µM	< 1 µM	–
Nc1nc(N)c(-c2ccccc2F)nc1C(=O)Nc1cnccc1N1CCCC(N)C1 (stereo not drawn) [Example 343, 3,5-diamino-6-(2-fluoro-phenyl)-pyrazine-2-carboxylic acid (3-amino-3,4,5,6-tetra-hydro-2H-[1,4′]bipyridinyl-3′-yl)-amide]	1 to 10 µM	–	–	1 to 10 µM	–	–	< 1 µM	< 1 µM	< 1 µM	< 1 µM	–
NCCC(=O)N1CCN(c2ccncc2NC(=O)c2nc(Cl)c(N)nc2N)CC1 [Example 185, 3,5-Diamino-6-chloro-pyrazine-2-carboxylic acid {4-[4-(3-amino-propionyl)-piperazin-1-yl]-pyridin-3-yl}-amide]	1 to 10 µM	–	–	1 to 10 µM	–	–	< 1 µM	< 1 µM	< 1 µM	< 1 µM	–
Cc1ccccc1-c1nc(C(=O)Nc2cnccc2N2CCCC(N)C2)c(N)nc1N (stereo not drawn) [Example 340, 3,5-diamino-6-o-tolyl-pyrazine-2-carboxylic acid (3-amino-3,4,5,6-tetrahydro-2H-[1,4′]bipyridinyl-3′-yl)-amide]	1 to 10 µM	–	–	10 to 25 µM	–	–	1 to 5 µM	< 1 µM	< 1 µM	< 1 µM	–
Nc1nccnc1C(=O)Nc1[nH]c(=O)ncc1N1CCCC(N)C1 (stereo not drawn) [Example 235, 3-amino-N-[5-(3-aminopiperidin-1-yl)-2-oxo-2,3-dihydro-pyrimidin-4-yl]pyrazine-2-carboxamide]	< 1 µM	–	–	10 to 25 µM	–	–	> 10 µM	< 1 µM	< 1 µM	< 1 µM	–
Nc1nc(N)c(C(=O)Nc2[nH]c(=O)ncc2N2CCC(F)(F)CC2)nc1Cl [Example 161, 3,5-diamino-6-chloro-N-[5-(4,4-difluoropiperidin-1-yl)-2-oxo-2,3-dihydropyrimidin-4-yl]-pyrazine-2-carboxamide]	> 25 µM	–	–	< 1 µM	–	–	> 10 µM	< 1 µM	< 1 µM	< 1 µM	–
Nc1cc(Cl)c(-c2ccc(N)c(C(=O)Nc3cnccc3N3CCC[C@H](N)C3)n2)cn1 [Example 410, 5,6′-diamino-4′-chloro-[2,3′]bi-pyridinyl-6-carboxylic acid ((S)-3-amino-3,4,5,6-tetrahydro-2H-[1,4′]bipyridinyl-3′-yl)-amide]	1 to 10 µM	–	–	> 25 µM	–	–	1 to 5 µM	< 1 µM	< 1 µM	< 1 µM	–
Nc1nc(N)c(-c2ccccc2C(F)(F)F)nc1C(=O)Nc1cnccc1N1CCCC(N)C1 (stereo not drawn) [Example 341, 3,5-diamino-6-(2-trifluoro-methyl-phenyl)-pyrazine-2-carboxylic acid (3-amino-3,4,5,6-tetrahydro-2H-[1,4′]bi-pyridinyl-3′-yl)-amide]	< 1 µM	–	–	1 to 10 µM	–	–	1 to 5 µM	< 1 µM	< 1 µM	< 1 µM	–
Nc1nc(N)c(C(=O)Nc2cnccc2N2CCCC(N)C2)nc1Cl (stereo not drawn) [Example 183, 3,5-diamino-N-[4-(3-amino-piperidin-1-yl)pyridin-3-yl]-6-chloropyrazine-2-carboxamide]	10 to 25 µM	–	–	1 to 10 µM	–	–	< 1 µM	< 1 µM	< 1 µM	< 1 µM	–
